Data as given in ChEMBL document CHEMBL4414660, “Effect of Modifier Structure on the Activation of Leukotriene A4 Hydrolase Aminopeptidase Activity” (J Med Chem, 2019).

Key:
[1] = target: T1, Leukotriene A-4 hydrolase (Homo sapiens, UniProt P09960); assay: Activation of N-terminal (His)6 and Xpress-tagged LTA4H (unknown origin) expressed in Escherichia coli BL21(DE3) cells assessed as increase in aminopeptidase activity by measuring p-nitroanilide release using L-Alanine-p-nitroanilide incubated for 10 mins by UV plate reader based assay
T1 sequence (P09960 whole entry): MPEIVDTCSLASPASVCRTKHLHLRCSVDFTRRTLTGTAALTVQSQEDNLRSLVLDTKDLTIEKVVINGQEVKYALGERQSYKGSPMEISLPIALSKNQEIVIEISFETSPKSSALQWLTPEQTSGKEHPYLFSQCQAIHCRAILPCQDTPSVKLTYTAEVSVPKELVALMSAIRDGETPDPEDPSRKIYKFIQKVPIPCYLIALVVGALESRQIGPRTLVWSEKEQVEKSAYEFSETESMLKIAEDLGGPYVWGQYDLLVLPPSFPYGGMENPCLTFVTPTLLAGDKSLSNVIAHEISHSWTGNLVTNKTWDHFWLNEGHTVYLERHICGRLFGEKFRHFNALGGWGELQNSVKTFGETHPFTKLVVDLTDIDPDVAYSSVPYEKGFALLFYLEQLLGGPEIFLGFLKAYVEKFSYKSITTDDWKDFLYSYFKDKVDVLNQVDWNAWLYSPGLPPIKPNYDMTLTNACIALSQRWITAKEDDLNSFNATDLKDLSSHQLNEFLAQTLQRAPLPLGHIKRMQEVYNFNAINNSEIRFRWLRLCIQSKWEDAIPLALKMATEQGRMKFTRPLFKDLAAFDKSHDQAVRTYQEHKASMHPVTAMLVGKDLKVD

[2] = target: T2, Leukotriene A-4 hydrolase (Homo sapiens) (UniProt P09960); assay: (§1) Activation of N-terminal (His)6 and Xpress-tagged LTA4H (unknown origin) expressed in Escherichia coli BL21(DE3) cells assessed as increase in aminopeptidase activity by measuring factor by which activator affects catalytic constant for hyperbolic mixed predominantly catalytic activation using L-Alanine-p-nitroanilide incubated for 10 mins by p-nitroanilide release detection based UV plate reader based assay
T2 sequence (whole entry): T1 sequence (P09960 whole entry)

[3] = target: T2, Leukotriene A-4 hydrolase (Homo sapiens); assay: as §1, with “dissociation” for “factor by which activator affects catalytic”, “constant (KX)” for “constant”
[4] = target: T2, Leukotriene A-4 hydrolase (Homo sapiens); assay: as §1, with “reciprocal allosteric coupling” for “factor by which activator affects catalytic”
[5] = target: T1, Leukotriene A-4 hydrolase; assay: Inhibition of N-terminal (His)6 and Xpress-tagged LTA4H (unknown origin) expressed in Escherichia coli BL21(DE3) cells assessed as reduction in aminopeptidase activity by measuring p-nitroanilide release using L-Alanine-p-nitroanilide incubated for 10 mins by UV plate reader based assay
[6] = target: T1, Leukotriene A-4 hydrolase; assay: (§2) Inhibition of N-terminal (His)6 and Xpress-tagged LTA4H (unknown origin) expressed in Escherichia coli BL21(DE3) cells assessed as reduction in aminopeptidase activity by measuring p-nitroanilide release using L-arginine-p-nitroanilide incubated for 10 mins by UV plate reader based assay
[7] = target: T2, Leukotriene A-4 hydrolase (Homo sapiens); assay: as §2
[8] = target: T2, Leukotriene A-4 hydrolase (Homo sapiens); assay: Inhibition of N-terminal (His)6 and Xpress-tagged LTA4H (unknown origin) expressed in Escherichia coli BL21(DE3) cells assessed as reduction in aminopeptidase activity by measuring PGP hydrolysis incubated for 30 mins
Neutrophil = assay: Inhibition of LTB4 production in A23187-stimulated human neutrophils at 0.001 to 1000 microM incubated for 30 mins by ELISA; assay type: functional, cell-based

In the case of `Cc1cccc(Cc2ccc(-c3csc(N)n3)cc2)c1`, the AC50 [1] is reported as 4.81 µM.

With `COc1ccc(Cc2ccccc2)cc1` the fold change (FC) [2] was 23.6, the AC50 [1] was 4.83 µM and the K [3] was 0.18 µM. It also gave a K [4] of 2.66.

For `Cc1ccc(Cc2ccc(-c3csc(N)n3)cc2)cc1`, the fold change (FC) [2] was 18.7, the AC50 [1] was 0.083 µM and the K [3] was 0.1 µM. The K [4] was 1.64.

`Nc1nc(-c2ccc(Cc3ccccc3C(F)(F)F)cc2)cs1` was tested, and the IC50 [5] was 8.35 µM.

With `COc1ccc(Cc2ccc(-c3csc(N)n3)cc2)cc1` the fold change (FC) [2] was 26.4, the IC50 [6] was 13.9 µM and the inhibition [7] was “Dose-dependent effect”. The AC50 [1] was 0.21 µM, the K [3] was 0.05 µM and the inhibition [8] was “Dose-dependent effect”. For the same molecule, the K [4] was 4.34 and the inhibition (Neutrophil) was “Dose-dependent effect”.

`COc1cccc(Cc2ccc(-c3csc(N)n3)cc2)c1` was tested, and the AC50 [1] was 5.92 µM.
